# Tested on: Tau-Synaptogyrin3 interaction
# Experiment: Tau competition assay with phloretin-inducible Tau expression in HEK293T-TK252 clones, luciferase activity
# Assay type: cell-based, Human
# Conditions: clone 1E2 co-transfected with pTK269 and pTK285, 0, 10 and 50 µM phloretin, 48 hours
# Experimental: • FIG. 1 is a fluorescence microscopy image of the HEK293T cell line transfected with EGFP-fused Tau (pTK231: P(CMV)-Tau-EGFP) and Synaptogyrin 3 (pTK233:P(CMV)-EGFP-Synaptogyrin 3), showing the expression of both proteins 48 hours after transfection. • FIG. 2a is a schematic of the Protein Complementary Assay (PCA) process using the split luciferase method. Split luciferase consists of two fragments of the luciferase enzyme: a small bit (sBit) and a large bit (Lbit). […] Therefore, by fusing each fragment of the split luciferase to Tau and Synaptogyrin3, luciferase activity may be induced as a result of the interaction between Tau and Synaptogyrin3. […] The system includes a synthetic transcriptional activator, TtgA, and a synthetic promoter, PTtgR, prepared based on the flavonoid-regulated TtgR operon of the Pseudomonas putida DOT-T1E strain. In the absence of phloretin, TtgA binds to PTtgR and activates transcription (without phloretin), while in the presence of phloretin, TtgA dissociates from DNA and transcription is not activated (with phloretin). […]
# Live cell luciferase assay: Live cell luciferase activity was measured using NanoGlo® Live Cell Assay System (Cat# N2012. Promega, WI, USA), according to manufacturer's instruction. […]
row,SMILES,"luciferase activity, difference between 0 and 50 µM treatment [fold]"
1,O=C(CCc1ccc(O)cc1)c1c(O)cc(O)cc1O [phloretin],2

# Tested on: TtgA / PTtgR phloretin-inducible gene expression system
# Experiment: Phloretin-regulated EGFP expression (pTK269: PCAG-TtgA and pTK274: PTtgR-EGFP) in HEK293T
# Assay type: cell-based, Human
# Conditions: HEK293T co-transfected with pTK269 and pTK274, 0 - 50 µM phloretin, 48 hours
# Experimental: • FIG. 1 is a fluorescence microscopy image of the HEK293T cell line transfected with EGFP-fused Tau (pTK231: P(CMV)-Tau-EGFP) and Synaptogyrin 3 (pTK233:P(CMV)-EGFP-Synaptogyrin 3), showing the expression of both proteins 48 hours after transfection. • FIG. 2a is a schematic of the Protein Complementary Assay (PCA) process using the split luciferase method. Split luciferase consists of two fragments of the luciferase enzyme: a small bit (sBit) and a large bit (Lbit). […] Therefore, by fusing each fragment of the split luciferase to Tau and Synaptogyrin3, luciferase activity may be induced as a result of the interaction between Tau and Synaptogyrin3. […] The system includes a synthetic transcriptional activator, TtgA, and a synthetic promoter, PTtgR, prepared based on the flavonoid-regulated TtgR operon of the Pseudomonas putida DOT-T1E strain. In the absence of phloretin, TtgA binds to PTtgR and activates transcription (without phloretin), while in the presence of phloretin, TtgA dissociates from DNA and transcription is not activated (with phloretin). […] In the stable cell line HEK293T-TK252 expressing Lbit-Tau and sBit-Synaptogyrin3, expression of Tau protein to which split luciferase is not fused, can lead to a decrease in luciferase signal. […]
row,SMILES,"EGFP signal, difference between 0 and 50 µM treatment [fold]"
1,O=C(CCc1ccc(O)cc1)c1c(O)cc(O)cc1O [phloretin],4

# Molecular target: T1, Tau-Synaptogyrin3 interaction (Homo sapiens, UniProt O43761+P10636)
# T1 construct: expressed in transfected cells
# T1 sequence (P10636 1-441 isoform P10636-8): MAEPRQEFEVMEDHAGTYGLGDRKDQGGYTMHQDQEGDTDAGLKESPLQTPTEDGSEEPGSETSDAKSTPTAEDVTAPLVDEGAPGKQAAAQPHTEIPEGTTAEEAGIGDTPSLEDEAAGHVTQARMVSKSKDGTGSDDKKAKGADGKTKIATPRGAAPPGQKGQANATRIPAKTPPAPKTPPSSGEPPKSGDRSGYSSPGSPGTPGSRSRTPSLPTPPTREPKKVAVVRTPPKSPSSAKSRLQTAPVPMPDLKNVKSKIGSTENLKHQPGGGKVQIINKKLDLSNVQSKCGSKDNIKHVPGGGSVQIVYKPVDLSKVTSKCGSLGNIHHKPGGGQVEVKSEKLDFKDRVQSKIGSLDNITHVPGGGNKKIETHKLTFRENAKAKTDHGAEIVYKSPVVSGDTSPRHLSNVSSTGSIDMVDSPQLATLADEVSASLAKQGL
# T1 sequence (O43761 whole entry): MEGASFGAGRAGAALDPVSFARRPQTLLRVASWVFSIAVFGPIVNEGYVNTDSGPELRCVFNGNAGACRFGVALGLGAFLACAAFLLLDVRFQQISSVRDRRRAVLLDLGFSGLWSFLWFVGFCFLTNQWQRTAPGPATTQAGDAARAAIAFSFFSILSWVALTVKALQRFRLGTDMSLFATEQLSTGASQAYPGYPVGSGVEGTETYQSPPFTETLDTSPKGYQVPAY
# Experiment: Cell-based split luciferase (NanoBit) protein complementary assay for Tau-Synaptogyrin3 interaction in stable cell line HEK293T-TK252-1E2
# Conditions: HEK293T-TK252-1E2 cells, 48 hrs compound treatment, L/F value (luciferase activity/fluorescent intensity) compared to DMSO control
# Experimental: Live cell luciferase assay: Live cell luciferase activity was measured using NanoGlo® Live Cell Assay System (Cat# N2012. Promega, WI, USA), according to manufacturer's instruction. All microplate-based measurement was performed with BioTek Synergy H1 (Agilent. CA, USA).
# For producing HEK293T-TK252 stable cell line for screening, BglII-linearized pTK252 was transfected to HEK293T cells. After 24 hrs transfection, the transfected cells were cultured in the culture media containing 1 µg/ml puromycin (10 mM in DMSO, Cat# J61278/ Alfa Aesar. ThermoFisher Korea, Seoul, Korea) for 9 days. Regular media change was performed in every 3 days with fresh puromycin of indicating concentration during the whole selection period. The selected cells were trypsinized and diluted to 5 cells/ml and seeded to 4x 96 well cell culture plates (100 µl/well), and cultured with the cell culture media containing 1 µg/ml puromycin for 11 days. 18 wells that contained only GFP-positive cells were selected for expansion, and cultured with the cell culture media containing 0.1-0.2 µg/ml puromycin for 14 days. 10 clones were discarded during the expansion due to emerging of non-GFP cells, and 8 clones were validated. The selected clone (1E2) was cultured with the cell culture media containing 0.5 µg/ml puromycin for further experiments.
# 3 µmol of 1,728 compounds were purchased from Otava Chemicals MB (Vilniaus, Lithuania), dissolved into 300 µl DMSO (10 mM) and stored at -80°C. 4x10^4 HEK293T-TK252-1E2 cells were seeded with 100 µl of the cell culture media into 96 white well cell culture plates (Cat# 30196. SPL, Seoul, Korea), 48 hrs prior to compound treatment. For 10 µM compound treatment, 10 mM compound stock was diluted to 50 µM with the cell culture media, and 25 µl of the diluted compound was added to the designated wells of the 96 well plates. For dose-response experiments, the amount of compounds for dilution was adjusted to fit the volume indicated above. After 48 hrs compound treatment, the cells were washed once with OptiMEM and live cell luciferase activity, fluorescent intensity and fluorescence area scan was measured.
# 1,728 compounds were treated at 10 µM to HEK293T-TK252-1E2 cells and incubated for 48 hrs. […] Single wash step with culture media without FBS was included before measurement to discard dead cells and to remove FBS that affects luciferase assay. […] Fluorescent intensity was taken for normalization, which is expected to be proportion to the cell number at the measuring point. L/F value which is luciferase activity normalized with fluorescent intensity (L/F = Luciferase activity/ Fluorescent intensity) was calculated for all measurements and compared to L/F value of DMSO controls to calculated the size of inhibitory effect. […] Fluorescence area scan (FA) performed right after luciferase activity and fluorescent intensity measurement, to validate total remaining fluorescent cells in a well as a proxy to the cellular toxicity. FA value was in proportion to WST assay results (data not shown), and average CV of triplicates of all measurements was 0.04.
# 61 compounds were further tested for dose-response profile, based on inhibitory effect that was measured by L/F value (<60%) and FA-based cell viability (>90%) at 10 µM compared to DMSO control. 10 compounds were considered as hit compounds through three times of reproduction.
row,IC50 [µM],SMILES
1,3 to 12,"O=C(c1nccs1)N1CCc2[nH]c3ccc(-c4ccccc4)cc3c2C1 [Formula 11, (8-phenyl-1,3,4,5-tetrahydro-2H-pyrido[4,3-b]indol-2-yl)(thiazol-2-yl)methanone]"
2,3 to 12,"Cc1ccc2[nH]c3c(c2c1)CN(C(=O)c1ccccc1)CC3 [Formula 68, (8-methyl-1,3,4,5-tetrahydro-2H-pyrido[4,3-b]indol-2-yl)(phenyl)methanone]"
3,3 to 12,O=C(c1ccncc1)N1CCc2[nH]c3ccc(-c4ccccc4)cc3c2C1 [Formula 3]
4,< 3,"Cc1ccc(C(=O)N2CCc3[nH]c4ccc(-c5ccc(C)cc5)cc4c3C2)cc1 [Formula 37, p-Tolyl(8-(p-Tolyl)-1,3,4,5-tetrahydro-2H-pyrido[4,3-b]indol-2-yl)methanone]"

# More lines, now with the values behind:
row,SMILES,IC50 [µM]
1,"Cc1ccc(-c2ccc3[nH]c4c(c3c2)CN(C(=O)c2ccccc2)CC4)cn1 [Formula 47, (8-(6-methylpyridin-3-yl)-1,3,4,5-tetrahydro-2H-pyrido[4,3-b]indol-2-yl)(phenyl)methanone]",3 to 12
2,"Cc1ccc(-c2ccc3[nH]c4c(c3c2)CN(C(=O)c2cccnc2)CC4)cc1 [Formula 29, Pyridin-3-yl(8-(p-tolyl)-1,3,4,5-tetrahydro-2H-pyrido[4,3-b]indol-2-yl)methanone]",< 3
3,"Cc1ccccc1-c1ccc2[nH]c3c(c2c1)CN(C(=O)c1nccs1)CC3 [Formula 25, Thiazol-2-yl(8-(o-tolyl)-1,3,4,5-tetrahydro-2H-pyrido[4,3-b]indol-2-yl)methanone]",3 to 12
4,"O=C(c1cccc(Cl)c1)N1CCc2[nH]c3ccc(-c4ccccc4)cc3c2C1 [Formula 13, (3-chlorophenyl)(8-phenyl-1,3,4,5-tetrahydro-2H-pyrido[4,3-b]indol-2-yl)methanone]",12 to 25
5,"O=C(c1ccccc1)N1CCc2[nH]c3ccc(-c4ccc(C5CCCCC5)cc4)cc3c2C1 [Formula 66, (8-(4-Cyclohexylphenyl)-1,3,4,5-tetrahydro-2H-pyrido[4,3-b]indol-2-yl)(phenyl)methanone]",12 to 25
6,Cc1ccc(C(=O)N2CCc3[nH]c4ccc(-c5ccc(C#N)cc5)cc4c3C2)cc1 [Formula 52],< 3
